We go through ten molecules from patent US5837548A, “Treatment of inflammation by inhibition of lipid body formation” (Beth Israel Hospital, priority 1995, dated 1998).

Experiment [1] relates to human neutrophils. The conditions noted are these: cited from earlier work.
Another experiment concerns human eosinophils. The conditions noted are these: receptor-mediated; cited from earlier work.
Experiment [2] relates to human neutrophils. As to the kind of experiment: cis-unsaturated fatty acid-induced lipid body formation in human neutrophils (osmium staining, light microscopy enumeration). In kind it is cell-based. The conditions noted are these: for inhibition at 1 µM / inhibition at 10 µM / inhibition at 5 µM / inhibition at 0.5 µM / inhibition at 1 µg/mL / inhibition at 10 µg/mL: Homo sapiens, Neutrophil, basal subtracted; for inhibition at 1 µM / inhibition at 10 µM: read-out: % inhibition; for inhibition of arachidonic acid-induced lipid body formation / inhibition of oleic acid-induced lipid body formation: human neutrophils, staurosporine 0.1-1.0 μM, aspirin 10 μg/mL, others as in Tables 1 and 2; for inhibition at 1 µg/mL / inhibition at 10 µg/mL: 1 h. On the procedure:
Neutrophils were purified from fresh human blood obtained by venipuncture from healthy adult volunteers and collected into acidified citrate. After addition of 6% dextran 70 (McGaw, Irvine, Calif.), RBCs were allowed to sediment for 1 hour at room temperature. The leukocyte-rich supernatant was overlaid onto an equal volume of Ficoll-Paque gradient (Piscataway, N.J.), and centrifuged at 400×g for 20 min. […] Residual RBCs were lysed with hypotonic saline.
Human leukocytes (10^6 cells/mL) were incubated with varying concentrations of arachidonic acid (AA), oleic acid (OA) or vehicle at 37° C. in a 5% CO2 /95% O2 atmosphere, and after 1 hour leukocytes (10^5 cells per slide) were cytocentrifuged (550 rpm, 5 min) onto glass slides. During inhibitory studies, neutrophils were pretreated for 1 hour with varying concentrations of enzyme inhibitors, protein synthesis inhibitors, or vehicle as indicated. When PKC inhibitors were used, the pre-incubation time was reduced to 30 minutes to avoid toxic effects to the cells. […] Stock solutions for A23187, D609, U-73122, and indomethacin were prepared in DMSO and stored at -20° C. Aliquots were diluted in Ca^++ /Mg^++ fee HBSS to the indicated concentration immediately prior to use. […] The morphology of fixed cells was observed, and lipid bodies were enumerated with phase contrast microscopy and a 100× objective lens in 50 consecutively scanned leukocytes.
Results were expressed as mean±SEM and were analyzed statistically by means of the analysis of variance followed by the Newman-Keuls-Student test with the level of significance set at p<0.05. Correlation coefficients were determined by linear regression, and correlation analysis was performed by Fisher's r to z transformation with the level of significance set at p<0.05.
^1 Neutrophils (10^6 /ml) were pretreated with protein kinase C
(actinomycin D, cycloheximide) for 30 min or with phospholipase C
inhibitors (D609, U73122) for 1 h. The cells were then stimulated with
vehicle, arachidonic acid (15 μM), or oleic acid (10 μM), for 1 h.
Results are mean ± SEM from fifty consecutively counted neutrophils.
Statistically significant differences between the agonist alone and the
inhibitor are represented by an asterisk(*). Percent inhibition has been
calculated after subtracting out the basal number of lipid bodies/PMN
present prior to stimulation.
^1 Neutrophils (10^6 /ml) were pretreated with the NSAID or
vehicle for 1 h then stimulated with vehicle, arachidonic acid, or oleic
± SEM from fifty consecutively counted neutrophils. Statistically
significant differences between the agonist alone and the NSAID are
represented by an asterisk (*). Percent inhibition has been calculated
after subtracting out the basal number of lipid bodies/PMN present prior

Experiment [3] concerns peritoneal macrophages from wild type mice. The experiment can be described thus: lipid body formation in peritoneal macrophages from wild type mice. In kind it is cell-based, mouse. The conditions noted are these: for % inhibition / lipid bodies (mean ± SEM)/macrophage: wild type, AA 15 μM; for inhibition of lipid body formation in macrophages: wild-type mice, 10 μg/mL. On the procedure: (§1) FIG. 4 is a graph illustrating the effects of arachidonic acid and oleic acid on lipid body formation in peritoneal macrophages from wild type (+/+) and cyclooxygenase-1 knockout (-/-) mice. The agonists AA and OA are represented by the square and circle symbols, respectively. The closed symbols represent the wild type mice; the open symbols represent the cyclooxygenase-1 knockout mice. Macrophages (10^6 /mL) were incubated with the agonists AA and OA at varying concentrations for an hour. Lipid bodies were enumerated using light microscopy following osmium staining. Each point represents the mean±SEM from fifty consecutively scanned macrophages.
(§2) Cyclooxygenase-1 and cyclooxygenase-2 knockout mice were generated as recently described (Morham et al., Cell 83:473-482 (1995); Langenbach et al., Cell 83:483-492 (1995)). All experiments were carried out with male 8-12 week old mice. Macrophages from cyclooxygenase genetically deficient mice and wild-type litter mates were obtained by lavaging the peritoneal cavity with 5 mL of cold RPMI containing heparin (20 IU/mL).
(§3) ^1 Peritoneal macrophages from wild type and COX 1 knockout mice were
(§4) pretreated with the NSAID or vehicle for 1h and then stimulated with
(§5) arachidonic acid (AA, 15 μM) or vehicle for 1h. Results are mean ±
(§6) SEM from fifty consecutively counted macrophages. The statistically

For experiment [4], the system named is peritoneal macrophages from COX 1 knockout mice. As to the kind of experiment: lipid body formation in peritoneal macrophages from cyclooxygenase-1 knockout mice. Type of experiment: cell-based, mouse. Particulars: for % inhibition / lipid bodies (mean ± SEM)/macrophage: COX 1 knockout, AA 15 μM; for inhibition of lipid body formation in macrophages: cyclooxygenase-1-deficient mice, 10 μg/mL. As to the method:
as §1, §2, §3, §4, §5, §6

The test system of experiment [5] is neutrophils (arachidonic acid uptake). As to the kind of experiment: 14C-arachidonic acid uptake in arachidonic acid-stimulated neutrophils. Particulars: for inhibition of 14C-arachidonic acid uptake: arachidonic acid-stimulated cells, aspirin 10 μg/mL, sodium salicylate 10 μg/mL, indomethacin 1 μg/mL; for 14C-AA uptake: stimulus arachidonate 15 μM, drug 1 μg/ml (table footnote). In kind it is cell-based, human. As to the method:
Neutrophils (10^6 /mL) were labeled with ^14 C-arachidonic acid (0.01 μCi/sample) together with either vehicle, aspirin (10 μg/mL), indomethacin (1 μg/mL) or sodium salicylate (10 μg/mL) for 1 hour. After the incubation period, lipid body formation was elicited by arachidonic acid (15 μM). The cells were washed 3 times in Ca^++ /Mg^++ free HBSS and analysis of incorporated ^14 C-arachidonic acid in the cell pellet was performed by liquid scintillation counting.
^1 The cells were pretreated with ^14 Carachidonic acid (0.01
μCi/sample) plus vehicle, aspirin (10 μg/ml) , sodium salicylate (1
μg/ml) or indomethacin (1 μg/ml) 1 h before the incubation with
arachidonic acid (15 μM). Cells were washed 3 times before the analysi
of incorporated ^14 Carachidonic acid. Results are representative of
independent experiments.

The mark [6] stands for this setting: arachidonic acid 15 μM, inhibitor 1 μM.
Setting [7] is: arachidonic acid 15 μM, inhibitor 10 μM.
[8] abbreviates: oleic acid 10 μM, inhibitor 1 μM.
Setting [9] is: oleic acid 10 μM, inhibitor 10 μM.
Where [10] appears, read: oleic acid 10 μM, NSAID 10 μg/ml, 1 h pretreatment.
Setting [11] is: arachidonic acid 15 μM, NSAID 10 μg/ml, 1 h pretreatment.
[12] abbreviates: arachidonic acid 15 μM, inhibitor 5 μM.
Where [13] appears, read: oleic acid 10 μM, inhibitor 5 μM.
The mark [14] stands for this setting: arachidonic acid 15 μM, inhibitor 0.5 μM.
[15] abbreviates: oleic acid 10 μM, inhibitor 0.5 μM.
[16] abbreviates: arachidonic acid 15 μM, NSAID 1 μg/ml, 1 h pretreatment.
The mark [17] stands for this setting: oleic acid 10 μM, NSAID 1 μg/ml, 1 h pretreatment.

Each structure is given as a SMILES string. Counter-ions that a name gives are not always drawn. Like-named read-outs stand apart in the source and are kept apart here.

For the molecule `CCCCCCCC/C=C\CCCCCCCC(=O)OCC(CO)OC(C)=O` (racemic), the “induction of lipid body formation” value with human neutrophils [1] is listed as “induce lipid body formation”.

With `CCCCCC=CCC=CCC=CC=CC(O)CCCC(=O)O` (centres unmarked) [5-HETE, 5-hydroxy-6,8,11,14-eicosatetraenoic acid], the “induction of lipid body formation” value with human neutrophils [1] and in the experiment with human eosinophils was “elicit lipid body formation” each time.

Regarding `S=C(S)OC1CC2CC1C1CCCC21` (centres unmarked) [D609], the inhibition at 1 µM with human neutrophils [2] (setting [6]) was found to be 48%; with human neutrophils [2] (setting [8]), 19%. Moreover, the results for the inhibition at 10 µM in the experiment with human neutrophils [2] (setting [7]) and in the experiment on human neutrophils [2] (setting [9]) were 84% and 46%, respectively. Besides, the “lipid bodies (mean ± SEM)/cell” value turned out to be 6.5 ± 0.2 lipid bodies/cell with human neutrophils [2] (setting [6]), 5.2 ± 0.2 lipid bodies/cell in the experiment on human neutrophils [2] (setting [7]), 9.4 ± 0.3 lipid bodies/cell in the experiment with human neutrophils [2] (setting [8]) and 7.8 ± 0.2 lipid bodies/cell with human neutrophils [2] (setting [9]).

As to `O=C(O)c1ccccc1O` [Na salicylate, salicylic acid (sodium salt)], in the experiment on human neutrophils [2] (setting [10]), the inhibition at 10 µM was determined as 53% and the “lipid bodies (mean ± SEM) PMN” value is 10.1 ± 0.4 lipid bodies/PMN. Further, the “lipid bodies (mean ± SEM) PMN” value in the experiment with human neutrophils [2] (setting [11]) was determined as 7.9 ± 0.4 lipid bodies/PMN. Further, in the experiment with human neutrophils [2], the “inhibition of arachidonic acid-induced lipid body formation” value was “significantly inhibited” and the “inhibition of oleic acid-induced lipid body formation” value is “significantly inhibited”. Moreover, in experiment [3] (NSAID 10 μg/ml), the “% inhibition” value was 45% and the “lipid bodies (mean ± SEM)/macrophage” value was 5.0 ± 0.3 lipid bodies/macrophage. Besides, in experiment [3], the “inhibition of lipid body formation in macrophages” value (“inhibition of lipid body formation” for short) is “significantly inhibited”. In addition, in experiment [4] (NSAID 10 μg/ml), the “% inhibition” value is listed as 66% and the “lipid bodies (mean ± SEM)/macrophage” value is reported as 4.0 ± 0.4 lipid bodies/macrophage. In addition, in experiment [4], the “inhibition of lipid body formation” value is given as “significantly inhibited”. Further, in experiment [5], the “inhibition of 14C-arachidonic acid uptake” value is “failed to inhibit” and the 14C-AA uptake was found to be 7292 cpm.

Turning to `COc1ccc2c(c1)CC[C@@H]1[C@@H]2CC[C@]2(C)[C@@H](NCCCCCCN3C(=O)C=CC3=O)CC[C@@H]12` [U-73122], the inhibition at 1 µM was 45% with human neutrophils [2] (setting [6]) and 8% with human neutrophils [2] (setting [8]). The figures for the inhibition at 5 µM with human neutrophils [2] (setting [12]) and with human neutrophils [2] (setting [13]) were 85% and 24%, respectively. Moreover, the “lipid bodies (mean ± SEM)/cell” value with human neutrophils [2] (setting [6]) is 6.6 ± 0.2 lipid bodies/cell; with human neutrophils [2] (setting [12]), 4.9 ± 0.2 lipid bodies/cell; in the experiment with human neutrophils [2] (setting [8]), 19.3 ± 0.4 lipid bodies/cell; with human neutrophils [2] (setting [13]), 16.9 ± 0.4 lipid bodies/cell.

In the case of `COc1ccc2c(c[n+](C)c3c4cc5c(cc4ccc23)OCO5)c1OC` [chelerythrine], the inhibition at 0.5 µM in the experiment with human neutrophils [2] (setting [14]) was found to be 50%; in the experiment with human neutrophils [2] (setting [15]) it was 25%. Besides, the inhibition at 1 µM with human neutrophils [2] (setting [6]) is 90%; in the experiment on human neutrophils [2] (setting [8]) it was 71%. Besides, the “lipid bodies (mean ± SEM)/cell” value worked out at 7.5 ± 0.3 lipid bodies/cell in the experiment with human neutrophils [2] (setting [14]), 5.1 ± 0.3 lipid bodies/cell in the experiment on human neutrophils [2] (setting [6]), 7.5 ± 0.2 lipid bodies/cell in the experiment on human neutrophils [2] (setting [15]) and 5.8 ± 0.3 lipid bodies/cell with human neutrophils [2] (setting [8]).

Turning to `COc1ccc2c(c1)c(CC(=O)O)c(C)n2C(=O)c1ccc(Cl)cc1` [indomethacin], in the experiment with human neutrophils [2] (setting [16]), the inhibition at 1 µg/mL turned out to be 63% and the “lipid bodies (mean ± SEM) PMN” value is 7.0 ± 0.5 lipid bodies/PMN. Further, in the experiment with human neutrophils [2] (setting [17]), the inhibition at 1 µg/mL amounted to 61% and the “lipid bodies (mean ± SEM) PMN” value is 9.1 ± 0.5 lipid bodies/PMN. For the same molecule, in the experiment with human neutrophils [2], the “inhibition of arachidonic acid-induced lipid body formation” value is recorded as “significantly inhibited” and the “inhibition of oleic acid-induced lipid body formation” value is reported as “significantly inhibited”. Further, in experiment [3] (NSAID 1 μg/ml), the “% inhibition” value is given as 61% and the “lipid bodies (mean ± SEM)/macrophage” value is on record as 4.4 ± 0.3 lipid bodies/macrophage. Also, the “inhibition of lipid body formation” value in experiment [3] is listed as “significantly inhibited”. Further, in experiment [4] (NSAID 1 μg/ml), the “% inhibition” value is listed as 48% and the “lipid bodies (mean ± SEM)/macrophage” value turned out to be 4.8 ± 0.4 lipid bodies/macrophage. Besides, the “inhibition of lipid body formation” value in experiment [4] is recorded as “significantly inhibited”. Moreover, in experiment [5], the “inhibition of 14C-arachidonic acid uptake” value is listed as “failed to inhibit” and the 14C-AA uptake is on record as 7095 cpm.

For `CCCCCCCCCCCCCC(=O)O[C@@H]1[C@@H](C)[C@@]2(O)[C@@H](C=C(CO)C[C@]3(O)C(=O)C(C)=C[C@@H]23)[C@@H]2C(C)(C)[C@]12OC(C)=O` [phorbol-12-myristate-13-acetate], the “induction of lipid body formation” value in the experiment on human neutrophils [1] is on record as “induce lipid body formation”.

Take `CN1C(C(=O)Nc2ccccn2)=C(O)c2ccccc2S1(=O)=O` [piroxicam]: in the experiment with human neutrophils [2] (setting [11]), the inhibition at 10 µg/mL came to 61% and the “lipid bodies (mean ± SEM) PMN” value came to 7.2 ± 0.4 lipid bodies/PMN. For the same molecule, in the experiment on human neutrophils [2] (setting [10]), the inhibition at 10 µg/mL is 50% and the “lipid bodies (mean ± SEM) PMN” value is listed as 10.4 ± 0.4 lipid bodies/PMN. For the same molecule, in the experiment with human neutrophils [2], the “inhibition of arachidonic acid-induced lipid body formation” value is “significantly inhibited” and the “inhibition of oleic acid-induced lipid body formation” value was “significantly inhibited”.

As to `CN[C@@H]1C[C@H]2O[C@@](C)([C@@H]1OC)n1c3ccccc3c3c4c(c5c6ccccc6n2c5c31)C(=O)NC4` [staurosporine], the “lipid bodies (mean ± SEM)/cell” value in the experiment on human neutrophils [2] (arachidonic acid 15 μM, inhibitor 0.1 μM) is 6.1 ± 0.3 lipid bodies/cell; in the experiment on human neutrophils [2] (setting [6]), 5.1 ± 0.2 lipid bodies/cell; in the experiment with human neutrophils [2] (oleic acid 10 μM, inhibitor 0.1 μM), 8.3 ± 0.3 lipid bodies/cell; in the experiment with human neutrophils [2] (setting [8]), 7.7 ± 0.3 lipid bodies/cell.
